US20260007758A1, “SO[…]-2 RECEPTOR (SST2R) NON-PEPTIDE DRUG CONJUGATES AND USES THEREOF” (Crinetics Pharmaceuticals, Inc., priority 2024, published 2026)

Key:
Type in all cases: cell-based
[1] = tested on: NCI-H524 human small cell lung cancer cells; experiment: H524 assay: inhibition of cell proliferation (CellTiter Glo); conditions: 2 h treatment, washout, additional 70 h incubation
Outline: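 NCI-H524 cells were exposed for 2 h to NDC in an 11-point two-fold series starting at 1 uM. The drug was then washed out and cells grew a further 70 h. CellTiter Glo luminescence gave % inhibition versus untreated control, and IC50 came from a four-parameter nonlinear regression.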

SST2 = biological target: T1, SST2 (Homo sapiens, UniProt P30874); experiment: PathHunter CHO-K1 SST2 Internalization Assay; conditions: PathHunter CHO-K1 SST2 cells; 90 min at 37 C; luminescence; read-out: Internalization EC50
T1 construct: host or cells: PathHunter CHO-K1 SST2 cells
T1 sequence (P30874 whole entry): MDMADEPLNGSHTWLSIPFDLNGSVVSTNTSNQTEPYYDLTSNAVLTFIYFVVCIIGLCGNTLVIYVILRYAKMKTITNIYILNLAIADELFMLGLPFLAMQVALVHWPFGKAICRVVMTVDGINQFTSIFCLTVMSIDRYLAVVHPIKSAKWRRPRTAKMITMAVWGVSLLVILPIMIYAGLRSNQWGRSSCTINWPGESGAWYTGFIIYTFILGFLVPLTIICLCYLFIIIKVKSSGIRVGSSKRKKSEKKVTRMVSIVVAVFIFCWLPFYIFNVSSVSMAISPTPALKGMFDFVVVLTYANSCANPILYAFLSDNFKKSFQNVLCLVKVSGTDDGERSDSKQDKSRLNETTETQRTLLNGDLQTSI
Outline: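 CHO-K1 cells expressing human SST2, 2500 cells/well, grown 48 h, then exposed 90 min at 37 C to 11-point 1:3 NDC dilutions (final top 10 uM). Beta-Glo luminescence after 60 min at room temperature; four-parameter IC50, duplicate mean, background-corrected.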

[2] = biological target: T2, human somatostatin receptor subtype 2 (Homo sapiens, UniProt P30874); experiment: Functional assay for SSTR2 agonists (HTRF cAMP); conditions: CHO-K1 cells stably expressing human SST2; NKH477-stimulated cAMP; 20 min at 37 C; read-out: hSST2 cAMP Avg EC50
T2 construct: expressed in transfected cells
T2 sequence (P30874 whole entry): as above
Outline: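 CHO-K1 cells stably expressing human SSTR2 treated with compound (typically 0-10,000 nM final) for 20 min at 37 °C. Lysate cAMP measured by HTRF (665/620 nm ratio), converted via standard curve; EC50 from cAMP vs concentration.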

## CC[C@H](C)[C@@H]([C@@H](CC(=O)N1CCC[C@H]1[C@H](OC)[C@@H](C)C(=O)N[C@H](C)[C@@H](O)c1ccccc1)OC)N(C)C(=O)[C@@H](NC(=O)[C@H](C(C)C)N(C)C(=O)OCc1ccc(NC(=O)[C@H](C)NC(=O)[C@@H](NC(=O)CCOCCn2cc(CCC(=O)NCCNc3ncc(-c4cc(C)cc(F)c4)c(N4CCC(N)CC4)c3-c3nc4ccc(Cl)cc4[nH]3)nn2)C(C)C)c(O[C@@H]2O[C@H](C(=O)O)[C@@H](O)[C@H](O)[C@H]2O)c1)C(C)C [Compound 141]
[1]
  EC50: 20 nM
SST2
  EC50: 8.8 nM
[2]
  EC50: 0.1 nM

## CC[C@H](C)[C@@H]([C@@H](CC(=O)N1CCC[C@H]1[C@H](OC)[C@@H](C)C(=O)N[C@H](C)[C@@H](O)c1ccccc1)OC)N(C)C(=O)[C@@H](NC(=O)[C@H](C(C)C)N(C)C(=O)OCc1ccc(NC(=O)[C@H](CCCNC(N)=O)NC(=O)[C@@H](NC(=O)c2cn(CCOCCC(=O)NCCNc3ncc(-c4cc(C)cc(F)c4)c(N4CCC(N)CC4)c3-c3nc4ccc(Cl)cc4[nH]3)nn2)C(C)C)cc1)C(C)C [Compound 142]
[1]
  EC50: 790 nM
SST2
  EC50: 6.3 nM
[2]
  EC50: 0.37 nM

## CC[C@H](C)[C@@H]([C@@H](CC(=O)N1CCC[C@H]1[C@H](OC)[C@@H](C)C(=O)N[C@H](C)[C@@H](O)c1ccccc1)OC)N(C)C(=O)[C@@H](NC(=O)[C@H](C(C)C)N(C)C(=O)OCc1ccc(NC(=O)[C@H](CCCNC(N)=O)NC(=O)[C@@H](NC(=O)c2cc(NCCOCCOCCOCCOCCC(=O)NCCNc3ncc(-c4cc(C)cc(F)c4)c(N4CCC(N)CC4)c3-c3nc4ccc(Cl)cc4[nH]3)cc(C(=O)NCC(=O)O)c2)C(C)C)cc1)C(C)C [Compound 144]
[1]
  EC50: 81 nM
SST2
  EC50: 21 nM
[2]
  EC50: 0.25 nM

## CC[C@H](C)[C@@H]([C@@H](CC(=O)N1CCC[C@H]1[C@H](OC)[C@@H](C)C(=O)N[C@H](C)[C@@H](O)c1ccccc1)OC)N(C)C(=O)[C@@H](NC(=O)[C@H](C(C)C)N(C)C(=O)OCc1ccc(NC(=O)[C@H](CCCNC(N)=O)NC(=O)[C@@H](NC(=O)c2cc(NCCOCCC(=O)NCCNc3ncc(-c4cc(C)cc(F)c4)c(N4CCC(N)CC4)c3-c3nc4ccc(Cl)cc4[nH]3)cc(C(=O)NCCC(=O)O)c2)C(C)C)cc1)C(C)C [Compound 145]
[1]
  EC50: 78 nM
SST2
  EC50: 17 nM
[2]
  EC50: 0.38 nM

## CC[C@H](C)[C@@H]([C@@H](CC(=O)N1CCC[C@H]1[C@H](OC)[C@@H](C)C(=O)N[C@H](C)[C@@H](O)c1ccccc1)OC)N(C)C(=O)[C@@H](NC(=O)[C@H](C(C)C)N(C)C(=O)OCc1ccc(NC(=O)[C@H](CCCNC(N)=O)NC(=O)[C@@H](NC(=O)c2cc(NCCOCCC(=O)NCCNc3ncc(-c4cc(C)cc(F)c4)c(N4CCC(N)CC4)c3-c3nc4ccc(Cl)cc4[nH]3)cc(C(=O)NCCCC(=O)O)c2)C(C)C)cc1)C(C)C [Compound 146]
[1]
  EC50: 62 nM
SST2
  EC50: 9.9 nM
[2]
  EC50: 0.29 nM

## CC[C@H](C)[C@@H]([C@@H](CC(=O)N1CCC[C@H]1[C@H](OC)[C@@H](C)C(=O)N[C@H](C)[C@@H](O)c1ccccc1)OC)N(C)C(=O)[C@@H](NC(=O)[C@H](C(C)C)N(C)C(=O)OCc1ccc(NC(=O)[C@H](CCCNC(N)=O)NC(=O)[C@@H](NC(=O)c2cc(NCCOCCC(=O)NCCNc3ncc(-c4cc(C)cc(F)c4)c(N4CCC(N)CC4)c3-c3nc4ccc(Cl)cc4[nH]3)cc(C(=O)NC[C@@H](N)C(=O)O)c2)C(C)C)cc1)C(C)C [Compound 147]
[1]
  EC50: 35 nM
SST2
  EC50: 23 nM
[2]
  EC50: 0.56 nM

## CC[C@H](C)[C@@H]([C@@H](CC(=O)N1CCC[C@H]1[C@H](OC)[C@@H](C)C(=O)N[C@H](C)[C@@H](O)c1ccccc1)OC)N(C)C(=O)[C@@H](NC(=O)[C@H](C(C)C)N(C)C(=O)OCc1ccc(NC(=O)[C@H](CCCNC(N)=O)NC(=O)[C@@H](NC(=O)c2cc(NC(=O)CCOCCC(=O)NCCNc3ncc(-c4cc(C)cc(F)c4)c(N4CCC(N)CC4)c3-c3nc4ccc(Cl)cc4[nH]3)cc(C(=O)NCC(=O)O)c2)C(C)C)cc1)C(C)C [Compound 149]
[1]
  EC50: 100 nM
SST2
  EC50: 12 nM
[2]
  EC50: 0.033 nM

## CC[C@H](C)[C@@H]([C@@H](CC(=O)N1CCC[C@H]1[C@H](OC)[C@@H](C)C(=O)N[C@H](C)[C@@H](O)c1ccccc1)OC)N(C)C(=O)[C@@H](NC(=O)[C@H](C(C)C)N(C)C(=O)OCc1ccc(NC(=O)[C@H](CCCNC(N)=O)NC(=O)[C@@H](NC(=O)c2cc(NC(=O)CCOCCOCCOCCOCCC(=O)NCCNc3ncc(-c4cc(C)cc(F)c4)c(N4CCC(N)CC4)c3-c3nc4ccc(Cl)cc4[nH]3)cc(C(=O)NCC(=O)O)c2)C(C)C)cc1)C(C)C [Compound 150]
[1]
  EC50: 53 nM
SST2
  EC50: 8.3 nM
[2]
  EC50: 0.083 nM

## CC[C@H](C)[C@@H]([C@@H](CC(=O)N1CCC[C@H]1[C@H](OC)[C@@H](C)C(=O)N[C@H](C)[C@@H](O)c1ccccc1)OC)N(C)C(=O)[C@@H](NC(=O)[C@H](C(C)C)N(C)C(=O)OCc1ccc(NC(=O)[C@H](CCCNC(N)=O)NC(=O)[C@@H](NC(=O)c2cc(NCCCCCC(=O)NCCNc3ncc(-c4cc(C)cc(F)c4)c(N4CCC(N)CC4)c3-c3nc4ccc(Cl)cc4[nH]3)cc(C(=O)NCC(=O)O)c2)C(C)C)cc1)C(C)C [Compound 154]
[1]
  EC50: 39 nM
SST2
  EC50: 7.7 nM
[2]
  EC50: 1.6 nM

## CC[C@H](C)[C@@H]([C@@H](CC(=O)N1CCC[C@H]1[C@H](OC)[C@@H](C)C(=O)N[C@H](C)[C@@H](O)c1ccccc1)OC)N(C)C(=O)[C@@H](NC(=O)[C@H](C(C)C)N(C)C(=O)OCc1ccc(NC(=O)[C@H](CCCNC(N)=O)NC(=O)[C@@H](NC(=O)c2cc(NC(=O)CCOCCn3cc(CCC(=O)NCCNc4ncc(-c5cc(C)cc(F)c5)c(N5CCC(N)CC5)c4-c4nc5ccc(Cl)cc5[nH]4)nn3)cc(C(=O)NCC(=O)O)c2)C(C)C)cc1)C(C)C [Compound 155]
[1]
  EC50: 300 nM
SST2
  EC50: 10 nM
[2]
  EC50: 0.44 nM

## CC[C@H](C)[C@@H]([C@@H](CC(=O)N1CCC[C@H]1[C@H](OC)[C@@H](C)C(=O)N[C@H](C)[C@@H](O)c1ccccc1)OC)N(C)C(=O)[C@@H](NC(=O)[C@H](C(C)C)N(C)C(=O)OCc1ccc(NC(=O)[C@H](CCCNC(N)=O)NC(=O)[C@@H](NC(=O)c2cc(NC(=O)C[C@@H](N)C(=O)NCCOCCC(=O)NCCNc3ncc(-c4cc(C)cc(F)c4)c(N4CCC(N)CC4)c3-c3nc4ccc(Cl)cc4[nH]3)cc(C(=O)NCC(=O)O)c2)C(C)C)cc1)C(C)C [Compound 156]
[1]
  EC50: 140 nM
SST2
  EC50: 14 nM
[2]
  EC50: 0.28 nM

## CC[C@H](C)[C@@H]([C@@H](CC(=O)N1CCC[C@H]1[C@H](OC)[C@@H](C)C(=O)N[C@H](C)[C@@H](O)c1ccccc1)OC)N(C)C(=O)[C@@H](NC(=O)[C@H](C(C)C)N(C)C(=O)OCc1ccc(NC(=O)[C@H](CCCNC(N)=O)NC(=O)[C@@H](NC(=O)c2cc(NCCC(=O)NCCNc3ncc(-c4cc(C)cc(F)c4)c(N4CCC(N)CC4)c3-c3nc4ccc(Cl)cc4[nH]3)cc(C(=O)NCC(=O)O)c2)C(C)C)cc1)C(C)C [Compound 157]
[1]
  EC50: 95 nM
SST2
  EC50: 20 nM
[2]
  EC50: 0.45 nM

## CC[C@H](C)[C@@H]([C@@H](CC(=O)N1CCC[C@H]1[C@H](OC)[C@@H](C)C(=O)N[C@H](C)[C@@H](O)c1ccccc1)OC)N(C)C(=O)[C@@H](NC(=O)[C@H](C(C)C)N(C)C(=O)OCc1ccc(NC(=O)[C@H](CCCNC(N)=O)NC(=O)[C@@H](NC(=O)c2cc(C(=O)NCC(=O)O)cc(N(C)CCOCCC(=O)NCCNc3ncc(-c4cc(C)cc(F)c4)c(N4CCC(N)CC4)c3-c3nc4ccc(Cl)cc4[nH]3)c2)C(C)C)cc1)C(C)C [Compound 158]
[1]
  EC50: 40 nM
SST2
  EC50: 5.1 nM
[2]
  EC50: 0.15 nM

## CC[C@H](C)[C@@H]([C@@H](CC(=O)N1CCC[C@H]1[C@H](OC)[C@@H](C)C(=O)N[C@H](C)[C@@H](O)c1ccccc1)OC)N(C)C(=O)[C@@H](NC(=O)[C@H](C(C)C)N(C)C(=O)OCc1ccc(NC(=O)[C@H](CCCNC(N)=O)NC(=O)[C@@H](NC(=O)c2cc(C(=O)NCC(=O)O)cc(N(C)CCOCCOCCOCCOCCC(=O)NCCNc3ncc(-c4cc(C)cc(F)c4)c(N4CCC(N)CC4)c3-c3nc4ccc(Cl)cc4[nH]3)c2)C(C)C)cc1)C(C)C [Compound 159]
[1]
  EC50: 130 nM
SST2
  EC50: 23 nM
[2]
  EC50: 1.2 nM

## CC[C@H](C)[C@@H]([C@@H](CC(=O)N1CCC[C@H]1[C@H](OC)[C@@H](C)C(=O)N[C@H](C)[C@@H](O)c1ccccc1)OC)N(C)C(=O)[C@@H](NC(=O)[C@H](C(C)C)N(C)C(=O)OCc1ccc(NC(=O)[C@H](CCCNC(N)=O)NC(=O)[C@@H](NC(=O)c2cc(OCCOCCC(=O)NCCNc3ncc(-c4cc(C)cc(F)c4)c(N4CCC(N)CC4)c3-c3nc4ccc(Cl)cc4[nH]3)cc(C(=O)NCC(=O)O)c2)C(C)C)cc1)C(C)C [Compound 160]
[1]
  EC50: 100 nM
SST2
  EC50: 7.4 nM
[2]
  EC50: 0.25 nM

## CC[C@H](C)[C@@H]([C@@H](CC(=O)N1CCC[C@H]1[C@H](OC)[C@@H](C)C(=O)N[C@H](C)[C@@H](O)c1ccccc1)OC)N(C)C(=O)[C@@H](NC(=O)[C@H](C(C)C)N(C)C(=O)OCc1ccc(NC(=O)[C@H](CCCNC(N)=O)NC(=O)[C@@H](NC(=O)c2cc(OCCOCCOCCOCCOCCC(=O)NCCNc3ncc(-c4cc(C)cc(F)c4)c(N4CCC(N)CC4)c3-c3nc4ccc(Cl)cc4[nH]3)cc(C(=O)NCC(=O)O)c2)C(C)C)cc1)C(C)C [Compound 161]
[1]
  EC50: 63 nM
SST2
  EC50: 9.1 nM
[2]
  EC50: 0.32 nM
